Here are results for two compounds from PMC10466336, “Chemical Probe for Imaging of Polo-like Kinase 4 and Centrioles” (JACS Au, 2023).

In assay [1] the target is T1, GFP-Plk4(K41M) in transfected HeLa cells (Homo sapiens, UniProt O00444, K41M).
T1 construct: expressed in transfected cells; host or cells: HeLa
T1 sequence (O00444 1-970 K41M): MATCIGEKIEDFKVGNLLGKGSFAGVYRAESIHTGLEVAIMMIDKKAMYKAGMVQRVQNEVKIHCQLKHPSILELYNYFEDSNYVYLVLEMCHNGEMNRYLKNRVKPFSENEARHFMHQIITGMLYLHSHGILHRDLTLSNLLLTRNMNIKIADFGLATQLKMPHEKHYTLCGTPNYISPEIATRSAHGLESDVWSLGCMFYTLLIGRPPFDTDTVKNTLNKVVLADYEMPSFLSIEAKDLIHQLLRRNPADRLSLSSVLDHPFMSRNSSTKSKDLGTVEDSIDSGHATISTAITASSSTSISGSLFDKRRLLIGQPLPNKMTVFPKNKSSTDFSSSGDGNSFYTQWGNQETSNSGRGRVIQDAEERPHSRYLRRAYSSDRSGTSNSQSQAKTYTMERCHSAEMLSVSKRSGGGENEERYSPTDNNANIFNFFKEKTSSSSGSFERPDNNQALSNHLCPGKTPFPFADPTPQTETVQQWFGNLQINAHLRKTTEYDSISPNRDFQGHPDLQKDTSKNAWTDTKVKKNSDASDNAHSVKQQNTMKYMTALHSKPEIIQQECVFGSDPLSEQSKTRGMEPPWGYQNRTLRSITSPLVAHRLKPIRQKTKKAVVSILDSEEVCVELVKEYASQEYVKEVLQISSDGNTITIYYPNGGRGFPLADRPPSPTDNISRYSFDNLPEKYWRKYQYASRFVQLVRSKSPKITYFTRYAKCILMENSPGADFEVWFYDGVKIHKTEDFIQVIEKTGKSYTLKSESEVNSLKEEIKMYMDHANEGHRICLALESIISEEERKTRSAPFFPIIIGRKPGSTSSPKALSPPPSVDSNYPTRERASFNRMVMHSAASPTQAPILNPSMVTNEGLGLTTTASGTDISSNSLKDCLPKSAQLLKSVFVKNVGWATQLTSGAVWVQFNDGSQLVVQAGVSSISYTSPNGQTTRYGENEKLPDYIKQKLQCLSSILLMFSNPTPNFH
The experiment in a line: Live-cell confocal/STED imaging of overexpressed Plk4. The class given is cell-based. The note with it: 500 nM, live-cell STED, HeLa GFP-Plk4(K41M), N = 5.

A further assay deals with HeLa Centrin1-GFP cells. The experiment in a line: Plk4 foci scoring at different time points of Cen-TCO incubation. The note with it: 500 nM. It is filed as cell-based, human. The protocol:
We conjugated trans-cyclooctene to the previously obtained compound (4) to obtain Cen-TCO (3) using the synthetic route outlined in Scheme S2. The resulting Cen-TCO (3) reacted with an appropriate tetrazine, such as SiR650-TetH (4a) (Figure S4A). The reaction was followed by LC-MS, and the data confirmed quantitative conversion of Cen-TCO (3) to the appropriate cycloaddition product Cen-Click-SiR650 (Figure S4A, D). […] To assess the phenotype caused by Cen-TCO (3), we incubated HeLa cells expressing Centrin1-GFP with different concentrations of Cen-TCO (3) for 24 h, followed by scoring of Centrin1-GFP foci numbers (Figure S5B). […] Next, we tested Cen-TCO (3) in combination with different tetrazine partners to determine the optimal combination for our bio-orthogonal strategy. We used four different tetrazines to visualize overexpressed GFP-Plk4(K41M) in HeLa cells following 1 h of incubation with Cen-TCO (500 nM) (Figure S6). […] Furthermore, the high fluorogenicity of HD653 makes it particularly well suited for live cell imaging.[33] Therefore, the combination of Cen-TCO (3) and HD653 (5) was further used for live cell imaging of endogenous Plk4 (Figure 4A). HeLa cells expressing Centrin1-GFP were incubated with 500 nM Cen-TCO (3) for 1 h, followed by a 15 min incubation with 500 nM HD653 (5) and imaged with a confocal microscope without prior washing. Despite the high unspecific background signal, a clear focus could be detected at centrioles (Figure 4B). […] The fwhm of the circular signal in this case was 368 ± 26 (N = 6) (Figure S7B), which corresponds to the size measured with overexpressed GFP-Plk4(K41M) (see Figure 3D), and approximately that of the torus region surrounding the centriole.[40] […] To assess this and test whether early time points after Cen-TCO addition may be immune to this problem, HeLa Centrin1-GFP cells were incubated with Cen-TCO (3) and fixed at different time points thereafter, after which the number of centriolar Plk4 foci per cell was quantified (Figure S8B–F). […]

SMILES strings stand for the structures.

In the case of `COc1c(Nc2cc(C)[nH]n2)nc(Sc2ccc(S(=O)(=O)Cc3cccc([N+](=O)[O-])c3F)cc2F)nc1N1CCC(CC(=O)NCCNC(=O)c2ccc(C(=O)O)c(C3=C4C=CC(=N)C=C4[Si](C)(C)c4cc(N)ccc43)c2)CC1` [2d], the “diameter of the circular SiR595 signal” value in assay [1] is listed as 373 ± 36 nm.

In the case of `COc1c(Nc2cc(C)[nH]n2)nc(Sc2ccc(S(=O)(=O)Cc3cccc([N+](=O)[O-])c3F)cc2F)nc1N1CCC(CC(=O)NCCNC(=O)OC2CC/C=C/CCC2)CC1` (stereo not shown) [compound 3], the “effect on Plk4 foci numbers” value is recorded as “no perturbation” with HeLa Centrin1-GFP cells (after 1 h of incubation) and “only minor perturbations” with HeLa Centrin1-GFP cells (up to 4 h of incubation). Also, the “effect on Plk4 foci numbers around centrioles” value in the assay on HeLa Centrin1-GFP cells (after 4 h) is reported as “significant increase”.
